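Step 1: Grow cells in 96-well plates. Step 2: Expose to compound for 48 hours at 5 concentrations. Step 3: Interpolate endpoints linearly; if unreached, use highest concentration. Here, GI50 denotes the concentration required for 50% inhibition of growth.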 Active and inactive are the calls of the source. Rule as the data show it: active = GI50 up to about 1.1 µM and inactive = higher.
How the values were obtained:
Assay in all cases: DTP human tumour cell line panel, 48 h
[1] = test system: DLD-1
[2] = test system: DMS-273
[3] = test system: KM-20L2
[4] = test system: LXFL 529
[5] = test system: M19-MEL
[6] = test system: RXF 631
[7] = test system: SNB-78
[8] = test system: XF498
[9] = test system: HOP-18

Structure (SMILES)	GI50 [1]	GI50 [2]	GI50 [3]	GI50 [4]	GI50 [5]	GI50 [6]	GI50 [7]	GI50 [8]	GI50 [9]
CCN(CC)CC(C(=O)Nc1c(C)cccc1C)/C(C)=N/NC(N)=S (stereo not given)	> 100 µM (inactive)	> 100 µM (inactive)	> 100 µM (inactive)	> 100 µM (inactive)	> 100 µM (inactive)	> 100 µM (inactive)	> 100 µM (inactive)	> 100 µM (inactive)	
COc1cc(/C=C\c2ccc(OC(C)=O)cc2)cc(OC)c1OC	3.99 µM (inactive)	0.887 µM (active)	25.9 µM (inactive)	6.1 µM (inactive)	6.4 µM (inactive)	17.7 µM (inactive)	5.62 µM (inactive)	3.39 µM (inactive)	
CCCCCCCC(=O)NCC(O)CNC(=O)CCCCCCC	> 100 µM (inactive)	> 100 µM (inactive)	> 100 µM (inactive)	> 100 µM (inactive)	> 100 µM (inactive)		> 100 µM (inactive)	> 100 µM (inactive)	> 100 µM (inactive)
Cc1nc2c(n1CC(C)C)C(=O)c1ccccc1C2=O	36.6 µM (inactive)	26.8 µM (inactive)	35.6 µM (inactive)	42.6 µM (inactive)	15.7 µM (inactive)		61.9 µM (inactive)	33.3 µM (inactive)	
OC(c1ccccn1)C1CNc2ccccc21 (stereo not given)	> 100 µM (inactive)	> 100 µM (inactive)	> 100 µM (inactive)	> 100 µM (inactive)	> 100 µM (inactive)		> 100 µM (inactive)	> 100 µM (inactive)	
CC[C@](O)(C(=O)O)c1cc2n(c(=O)c1CO)Cc1cc3ccccc3nc1-2		0.025 µM (active)	0.0535 µM (active)	0.692 µM (active)	0.0336 µM (active)	0.084 µM (active)		0.0968 µM (active)	0.0436 µM (active)
C/C=C(/I)CBr	15.4 µM (inactive)		29.5 µM (inactive)	13.7 µM (inactive)	14.5 µM (inactive)	15.3 µM (inactive)	29 µM (inactive)	13.5 µM (inactive)	
COc1cc(C(=O)NC2CCc3cc(OC)c(OC)c(OC)c3-c3ccc(OC)c(=O)cc32)cc(OC)c1OC (stereo not given)	0.265 µM (active)	0.0316 µM (active)	0.0817 µM (active)	0.0272 µM (active)	0.0577 µM (active)		0.0232 µM (active)	0.15 µM (active)	> 29.4 µM (inactive)
CC(=O)OC1=CC(n2cc(F)c(=O)[nH]c2=O)OC(C)C1=O (stereo not given)	97.3 µM (inactive)	41.5 µM (inactive)		> 100 µM (inactive)	90.8 µM (inactive)		> 100 µM (inactive)	> 100 µM (inactive)	> 100 µM (inactive)
COC1OC(C)C(OC(=O)C(C)(C)C)C(C)(O)C1O (stereo not given)	> 100 µM (inactive)	> 100 µM (inactive)	> 100 µM (inactive)	> 100 µM (inactive)	> 100 µM (inactive)		81.5 µM (inactive)	> 100 µM (inactive)	> 100 µM (inactive)
COc1ccc(NS(=O)(=O)c2ccc(/N=C3\C=C(Nc4ccc(S(=O)(=O)Nc5ccc(OC)nn5)cc4)C(=O)c4ccccc43)cc2)nn1	18.5 µM (inactive)	14.9 µM (inactive)	17.9 µM (inactive)	22.2 µM (inactive)	16.9 µM (inactive)		57 µM (inactive)	22.6 µM (inactive)	16 µM (inactive)
COC(=O)C(CCCC1(c2ccccc2)OCCO1)C(C)=O (stereo not given)	> 100 µM (inactive)	> 100 µM (inactive)	> 100 µM (inactive)	> 100 µM (inactive)	> 100 µM (inactive)	> 100 µM (inactive)	> 100 µM (inactive)	> 100 µM (inactive)	> 100 µM (inactive)
CN(C)c1ccc(/C=C2\C[N+](C)(C)C/C(=C\c3ccc(N(C)C)cc3)C2=O)cc1	35.9 µM (inactive)	5.25 µM (inactive)	12.9 µM (inactive)	7.55 µM (inactive)	13.4 µM (inactive)		> 49.8 µM (inactive)	> 10 µM (inactive)	37.1 µM (inactive)
Cc1ccc(C)c(N2C(=O)C(=O)C(c3nc4ccccc4o3)/C(=N/N)C2=O)c1 (stereo not given)	> 100 µM (inactive)	> 100 µM (inactive)	> 100 µM (inactive)	> 100 µM (inactive)	> 100 µM (inactive)		> 100 µM (inactive)	47.6 µM (inactive)	> 100 µM (inactive)
NS(=O)(=O)c1cc2c(cc1Cl)NC(C(=O)c1cc(=O)c3ccc(O)cc3o1)=NS2(=O)=O	> 100 µM (inactive)	> 100 µM (inactive)	> 100 µM (inactive)		> 100 µM (inactive)		> 100 µM (inactive)	> 100 µM (inactive)	> 100 µM (inactive)

Reference: ChEMBL document CHEMBL1201862, “PubChem BioAssay data set” (2004)
